Experimental data from patent publication US20230212129A1, “QUINAZOLINE DERIVATIVES USEFUL AS SELECTIVE HDAC6 INHIBITORS” (AnnJi Pharmaceutical Co., Ltd., priority 2020, published 2023).

Columns and labels:
Rat DRG cells = assay: Cisplatin-induced neurite degeneration in DRG cells; format: cell-based; settings: 0.3 μM with 0.5 mM cisplatin, 48 hours; p<0.05; FIG. 3
Procedure: Rat DRG cells were used to investigate the protective effect of HDAC6 inhibitors. DRG cells were treated with 0.5 mM of cisplatin with or without 0.3 μM of COMPOUND 2 or ACY1215 for 48 hours. The neurite area and the number of blebs (cell apoptosis) per image were calculated and their ratio values among the tested groups were compared and shown in FIG. 3.

[1] = tested on: cisplatin-induced neuropathy; assay: Cisplatin-induced neuropathy, von Frey paw-withdrawal murine model; format: in vivo, Balb/c mice; settings: oral once daily Day 16 to 29 (pregabalin 15 mg/kg one hour prior to test); vs cisplatin control; FIG. 4
Procedure: To understand whether COMPOUND 2 exerts neuron protective activities in cisplatin-induced neuropathy, a paw-withdrawal murine model is deployed. The 50% paw withdrawal threshold (PWT) to a static mechanical stimulus was assessed using von Frey filament and up-and-down method following the procedure described by Chaplan (1994). Mechanical allodynia, a painful sensation caused by innocuous stimuli like light touch, was assessed by the manual von Frey test once per week (on day 7, 14, 21, 28, […], and 42). The animals indicated sensation by pulling back its paw. The minimum force leading to withdrawal of the paw was regarded as the reflex threshold.
Balb/c mice weighing about 25±2 gram were given cisplatin intraperitoneally at the dose of 1.5 mg/kg for 5 consecutive days (cumulative dose of 7.5 mg/kg), followed by 5 days of recovery. The cisplatin administration cycle was repeated once more to reach a cumulative dose of 15 mg/kg to induce neuropathy. Test compounds, COMPOUND 2 and ACY1215, were orally administered once daily for 2 weeks (except for the weekends) from Day 16 to 29. Pregabalin, a drug known to provide transient pain relief, was administered at a dose of 15 mg/kg prior to each von Frey stimulus test to serve as the positive control.

HDAC6 = target: T1, HDAC6 (Homo sapiens, UniProt Q9UBN7); assay: HDAC6 activity, acetylated-AMC-labeled peptide substrate; format: biochemical; settings: for HDAC6 selectivity (A)/(B): HDAC1 IC50 / HDAC6 IC50; for IC50: read-out: HDAC6 IC50 (B)
T1 construct: GST (N); host or cells: baculovirus expression system, Sf9 insect cells
T1 sequence (Q9UBN7 1-1215): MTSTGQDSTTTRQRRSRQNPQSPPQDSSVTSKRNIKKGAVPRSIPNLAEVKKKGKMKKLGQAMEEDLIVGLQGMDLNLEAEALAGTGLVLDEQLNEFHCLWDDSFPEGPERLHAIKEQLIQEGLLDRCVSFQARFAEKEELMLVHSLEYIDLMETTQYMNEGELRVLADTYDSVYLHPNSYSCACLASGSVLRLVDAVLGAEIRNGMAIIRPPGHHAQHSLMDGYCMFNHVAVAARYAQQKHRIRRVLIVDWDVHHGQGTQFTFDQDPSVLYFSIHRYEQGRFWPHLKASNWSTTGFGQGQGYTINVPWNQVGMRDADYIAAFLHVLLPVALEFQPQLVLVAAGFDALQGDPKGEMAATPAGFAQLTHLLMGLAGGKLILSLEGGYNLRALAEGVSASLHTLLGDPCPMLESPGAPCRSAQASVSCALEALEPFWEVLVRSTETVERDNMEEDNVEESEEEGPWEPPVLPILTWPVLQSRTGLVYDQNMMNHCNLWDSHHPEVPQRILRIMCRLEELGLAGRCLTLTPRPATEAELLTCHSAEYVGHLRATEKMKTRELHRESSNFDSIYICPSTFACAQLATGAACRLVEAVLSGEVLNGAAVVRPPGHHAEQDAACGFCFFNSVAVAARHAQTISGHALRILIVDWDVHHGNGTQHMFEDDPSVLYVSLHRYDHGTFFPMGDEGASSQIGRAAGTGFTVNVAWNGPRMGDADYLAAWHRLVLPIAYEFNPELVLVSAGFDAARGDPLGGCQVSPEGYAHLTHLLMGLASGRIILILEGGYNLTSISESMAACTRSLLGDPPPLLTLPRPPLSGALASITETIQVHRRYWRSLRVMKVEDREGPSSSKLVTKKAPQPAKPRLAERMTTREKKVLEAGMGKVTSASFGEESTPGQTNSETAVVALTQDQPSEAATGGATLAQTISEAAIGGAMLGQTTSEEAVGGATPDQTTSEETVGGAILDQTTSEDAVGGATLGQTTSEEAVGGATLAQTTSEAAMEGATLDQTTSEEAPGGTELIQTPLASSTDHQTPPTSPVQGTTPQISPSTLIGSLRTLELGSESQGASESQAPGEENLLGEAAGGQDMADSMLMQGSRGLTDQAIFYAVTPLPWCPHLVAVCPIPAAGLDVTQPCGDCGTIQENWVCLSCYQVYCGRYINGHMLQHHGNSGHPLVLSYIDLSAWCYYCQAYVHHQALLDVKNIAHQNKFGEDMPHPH
Procedure: (§1) The activities of HDAC 1 and 6 were measured by using an acetylated-AMC-labeled peptide substrate, a fluorogenic peptide from p53 residues 379-382 (RHIKKAc). The proteins involved in the assay are as the followings (1) Human HIDAC1 (Genflank Accession No. NM_004964): Full length with C-terminal GST tag, MW=79.9 kDa, expressed by baculovirus expression system in SP9 cells; and (2) Human HIDAC6 (Genflank Accession No. BC069243): Full length with N-terminal GST tag, MW=159 kDa, expressed by baculovirus expression system in Sf9 cells.

[2] = Oral pharmacokinetics (Table II); design: AUC: concentration or dose not given beside the values; settings: in vivo; for AUC: unit inferred
HDAC1 = target: T2, HDAC1 (Homo sapiens, UniProt Q13547); assay: HDAC1 activity, acetylated-AMC-labeled peptide substrate; format: biochemical
T2 construct: GST (C); host or cells: baculovirus expression system, Sf9 insect cells (SP9 [sic])
T2 sequence (Q13547 whole entry): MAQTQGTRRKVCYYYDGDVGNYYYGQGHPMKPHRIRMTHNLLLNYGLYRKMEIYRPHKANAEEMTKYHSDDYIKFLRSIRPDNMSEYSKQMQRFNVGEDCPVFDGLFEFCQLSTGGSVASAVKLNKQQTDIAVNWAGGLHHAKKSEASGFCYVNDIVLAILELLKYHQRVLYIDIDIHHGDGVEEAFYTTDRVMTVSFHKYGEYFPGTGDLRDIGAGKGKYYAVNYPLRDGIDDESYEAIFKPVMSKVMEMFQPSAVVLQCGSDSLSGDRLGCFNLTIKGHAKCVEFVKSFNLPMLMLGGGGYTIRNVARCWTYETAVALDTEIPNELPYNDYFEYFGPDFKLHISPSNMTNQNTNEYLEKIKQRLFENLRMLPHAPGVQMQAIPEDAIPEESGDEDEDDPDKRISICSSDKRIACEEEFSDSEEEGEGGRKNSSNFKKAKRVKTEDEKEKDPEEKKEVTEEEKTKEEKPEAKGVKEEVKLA
Procedure: as §1

[3] = tested on: acetylated α-tubulin (Ac-α-tub); assay: Western blot of acetylated α-tubulin in primary DRG cells; format: cell-based, C57BL/6J mice; settings: 48 hours of treatment, FIG. 2
Procedure: (§2) To investigate the effect of HDAC6 inhibitors in neuron protection and neuron regeneration, the recovery of dorsal root ganglion (DRG) cells post-paclitaxel injury was tested. Dorsal root ganglion was extracted from 7 week-old female C57BL/6J mice and incubated with HDAC6 inhibitors (compounds COMPOUND 33, COMPOUND 34, or COMPOUND 2) at the concentrations of 0.1 μM and 1 μM, or 100 ng/ml of BDNF, a neuronal growth factor (positive control), for 24 hours prior to a 24-hour incubation of 0.1 μM paclitaxel.

[4] = tested on: dorsal root ganglion (DRG) cells; assay: DRG neurite outgrowth after paclitaxel-induced damage; format: cell-based, C57BL/6J mice; settings: 0.1 μM and 1 μM, 24 hours prior to 24-hour 0.1 μM paclitaxel; FIG. 1
Procedure: as §2
The neurite was stained by pIII-tubulin.

[5] = tested on: paclitaxel-induced peripheral neuropathy; assay: Paclitaxel-induced peripheral neuropathy, Von Frey test; format: in vivo, Sprague-Dawley (SD) rats; settings: for mean withdrawal force threshold: 15 mg/kg one hour prior to test, mean±SEM
Procedure: Male Sprague-Dawley (SD) rats, weighing 320±30 grams, were given paclitaxel intraperitoneally at the dose of 6 mg/kg for 5 consecutive days with a total cumulative dose of 30 mg/kg to induce chemotherapy-induced peripheral neuropathy.
Compound 2 or vehicle was administered orally once daily for 2 weeks during the weekdays (Days 8 to 12 and 15-19). Mechanical allodynia is assessed by the manual Von Frey test once per week. The animals are given 20 to 30 minutes to acclimatize prior to the testing. The paw is pressed with a series of 8 manual Von Frey monofilaments with logarithmically incremental stiffness [3.61 (0.4 g), 3.84 (0.6 g), 4.08 (1.0 g), 4.31 (2.0 g), 4.56 (4.0 g), 4.93 (8.0 g), 5.18 (15.0 g) and (26.0 g)]. The manual Von Frey monofilament was applied perpendicularly from underneath the mesh floor to the central plantar surface with sufficient force to cause a slight buckling against the paw, and held for approximately 6-8 seconds. A positive response was noted if the paw is sharply withdrawn; ambulation is considered an ambiguous response, and in such cases, the stimulus is reapplied. The 50% paw withdrawal threshold (PWT) to a static mechanical stimulus was assessed using Von Frey filament and up-and-down method.
Von Frey data were presented as mean±SEM (Standard Error of the Mean). Treatment groups were compared to the paclitaxel control using Student's T-test. A p value <0.05 is considered to represent a significant difference.

| Structure (SMILES) | neurite degeneration (neurite area and number of blebs ratio) (Rat DRG cells) | mean withdrawal threshold (50% PWT) [1] | HDAC6 selectivity (A)/(B) (HDAC6) | IC50 (HDAC6) [nM] | Cmax [2] [ng/mL] | AUC [2] [ng·h/mL] | IC50 (HDAC1) [nM] | tubulin hyperacetylation [3] | neurite outgrowth [4] | mean withdrawal force threshold ([5]; Day 14) [g] | mean withdrawal force threshold ([5]; Day 21) [g] | pain-relief after dosing was stopped ([5]; FIG. 7) |
| --- | --- | --- | --- | --- | --- | --- | --- | --- | --- | --- | --- | --- |
| O=C(CCCCCCNC(=O)c1cnc(N(c2ccccc2)c2ccccc2)nc1)NO [ACY-1215, reference compound] | significantly lesser degree of neurite degeneration | not ACY1215, Reverses Cisplatin-Induced Neuropathy | – | – | – | – | – | – | – | – | – | – |
| Cc1cccc(C)c1-n1c(C)nc2cc(F)c(/C=C/C(=O)NO)cc2c1=O [Compound 1, (E)-3-(3-(2,6-dimethylphenyl)-7-fluoro-2-methyl-4-oxo-3,4-dihydroquinazolin-6-yl)-N-hydroxyacrylamide] | – | – | 328 | 12 | 4130 | 5830 | 3940 | – | – | – | – | – |
| CCc1nc2cc(F)c(/C=C/C(=O)NO)cc2c(=O)n1-c1ccc(Br)cc1C [Compound 6, (E)-3-(3-(4-bromo-2-methylphenyl)-2-ethyl-7-fluoro-4-oxo-3,4-dihydroquinazolin-6-yl)-N-hydroxyacrylamide] | – | – | 85 | 60 | 3630 | 42600 | 5100 | – | – | – | – | – |
| CCc1nc2c(F)cc(/C=C/C(=O)NO)cc2c(=O)n1-c1c(C)cccc1C [Compound 11, (E)-3-(3-(2,6-dimethylphenyl)-2-ethyl-8-fluoro-4-oxo-3,4-dihydroquinazolin-6-yl)-N-hydroxyacrylamide] | – | – | 43 | 159 | 727 | 7180 | 6900 | – | – | – | – | – |
| CCc1nc2cc(F)c(/C=C/C(=O)NO)cc2c(=O)n1-c1cccc(C)c1C [Compound 22, (E)-3-(3-(2,3-dimethylphenyl)-2-ethyl-7-fluoro-4-oxo-3,4-dihydroquinazolin-6-yl)-N-hydroxyacrylamide] | – | – | 77 | 55 | 3330 | 9920 | 4240 | – | – | – | – | – |
| CCc1nc2cc(F)c(/C=C/C(=O)NO)cc2c(=O)n1-c1ccc(F)cc1C [Compound 26, (E)-3-(2-ethyl-7-fluoro-3-(4-fluoro-2-methylphenyl)-4-oxo-3,4-dihydroquinazolin-6-yl)-N-hydroxyacrylamide] | – | – | 180 | 24 | 2680 | 12000 | 4320 | – | – | – | – | – |
| CCc1nc2cc(F)c(/C=C/C(=O)NO)cc2c(=O)n1-c1ccc(OC)cc1C [Compound 34, (E)-3-(2-ethyl-7-fluoro-3-(4-methoxy-2-methylphenyl)-4-oxo-3,4-dihydroquinazolin-6-yl)-N-hydroxyacrylamide] | – | – | 175 | 26 | 873 | 11000 | 4550 | tubulin hyperacetylation | significantly rescued the neurite outgrowth | – | – | – |
| Cc1ccccc1-n1c(C)nc2cc(F)c(/C=C/C(=O)NO)cc2c1=O [Compound 44] | – | – | 129 | 20 | 719 | 5720 | 2580 | – | – | – | – | – |
| CC(C)C[C@H](CN)CC(=O)O [Pregabalin, reference compound] | – | increased withdrawal threshold | – | – | – | – | – | – | – | 24.1 ± 3.45 | 26 ± 0 | failed to show the efficacy |
